Results from PubChem BioAssay (NCI).
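Interpolation was linear, between the two tested concentrations surrounding the appropriate level; five concentrations were tested over 48 hours in 96-well plates. GI50 = concentration required for 50% inhibition of growth. At the TGI there is no net growth.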 *1 amine or outer side, *2 acyl side, *3 side chain or, on linkers, in order; H or OH if unused. Where a SMILES comes first, the peptide text is derived from it. Bridges are numbered along the chain shown (N, C = ends). [ ]: non-standard residue; d: D form. X59 = COc1c(N[*:1])cccc1C(=O)O[C@H](C(=O)[C@H](C)C(=O)[*:2])C(C)C; X58 = CC(C)C[C@H](C(=O)[*:2])C(C)C(=O)C1CCCN1[*:1]; NMeY = CN[C@@H](Cc1ccc(O)cc1)C(=O)O; Lac = C[C@H](O)C(=O)O

How the values were obtained:
Experiment in all cases: NCI tumour cell line growth inhibition, 48 h
[1] = tested on: PC-3 prostate
[2] = tested on: HOP-62 NSCLC
[3] = tested on: SK-MEL-2 melanoma
[4] = tested on: IGROV1 ovarian
[5] = tested on: EKVX NSCLC
[6] = tested on: COLO 205 colon
[7] = tested on: MCF7 breast
[8] = tested on: A549 NSCLC
[9] = tested on: NCI-H522 lung
[10] = tested on: SF-268 CNS
[11] = tested on: MDA-MB-231 breast
[12] = tested on: SNB-75 CNS
[13] = tested on: BT-549 breast

| Structure (SMILES) | TGI [1] [µM] | TGI [2] [µM] | TGI [3] [µM] | TGI [4] [µM] | TGI [5] [µM] | TGI [6] [µM] | TGI [7] [µM] | TGI [8] [µM] | TGI [9] [µM] | TGI [10] [µM] | TGI [11] [µM] | TGI [12] [µM] | TGI [13] [µM] | GI50 [1] [µM] |
| --- | --- | --- | --- | --- | --- | --- | --- | --- | --- | --- | --- | --- | --- | --- |
| Cc1c(-c2ccccc2)c(C#N)c2nnn(C)c(=O)n12 | > 100 | > 100 | > 100 | > 100 | > 100 | > 100 | > 100 | > 100 | > 100 | > 100 | > 100 | > 100 | > 100 |  |
| O=C(/C=C/c1ccccc1Br)c1ccccc1 | 23.5 | 26.2 | 31.3 | 9.91 | 26.4 | 28.6 | 2.27 | 25.3 | 9.73 | 10.5 | 27.5 | 25.4 | 26.4 |  |
| Cc1ccc(S(=O)(=O)OI(O)CC(F)(F)F)cc1 | > 100 | > 100 | > 100 | > 100 | > 100 | > 100 | > 100 | > 100 | > 100 | > 100 | > 100 | > 100 | > 100 |  |
| COC(=O)C1=C(C(=O)OC)C(OO)(c2ccccc2)OC1=O (configuration not stated) | > 100 |  | > 100 | > 100 | > 100 | > 100 | > 100 | > 100 | > 100 |  | > 100 | > 100 | > 100 |  |
| CN(C(=O)c1cc2c(s1)sc1c(=O)n(C)c3ccccc3c12)c1ccccc1 | > 100 |  | > 100 | > 100 | > 100 | > 100 | > 100 | > 100 | > 100 |  | > 100 | > 100 | > 100 |  |
| CC1=NN(C(=O)CC(=O)Nc2ccc(Cl)cc2)C(=O)C1N=Nc1ccc(S(=O)(=O)c2ccc(N=NC3C(=O)N(C(=O)CC(=O)Nc4ccc(Cl)cc4)N=C3C)cc2)cc1 (configuration not stated) | > 100 | > 100 | > 100 | > 100 | > 100 | > 100 | > 100 | > 100 | > 100 | > 100 | > 100 | > 100 | > 100 |  |
| COc1cc(/C=C2\CC(C)C/C(=C\c3ccc(O)c(OC)c3)C2=O)ccc1O (configuration not stated) | 20.5 | 9.11 | 17.8 | 5.88 | 28.1 | 24.7 | 19.3 | 17.8 | 3.86 | 20.7 | 8.35 | 15 | 12.3 |  |
| COc1ccc(C[C@H]2C(=O)O[C@H](C)[C@H](NC(=O)[C@@H](CC(C)C)C(C)C(=O)C3CCCN3C(=O)[C@H](C)O)C(=O)Nc3cccc(c3OC)C(=O)O[C@@H](C(C)C)C(=O)[C@H](C)C(=O)N[C@@H](CC(C)C)C(=O)N3CCC[C@H]3C(=O)N2C)cc1 (some centres not stated) (H-[Lac][X58]T[X59]LP[NMeY](Me); ester 3-C) | > 12.5 | > 12.5 | > 12.5 | > 12.5 | > 12.5 | > 12.5 | > 12.5 | > 12.5 | > 12.5 | > 12.5 | > 12.5 | > 12.5 | > 12.5 |  |
| N/N=C(/CC(O)(C(F)(F)F)C(F)(F)F)c1ccccc1 | > 10 | > 10 | > 10 | > 10 | > 10 | > 10 | > 10 | > 10 | > 10 | > 10 | > 10 | > 10 | > 10 |  |
| COC(=O)/C=C/C(=O)Nc1cc(Cl)c(Cl)cc1CC(=O)N(C)[C@H]1CCCC[C@@H]1N1CCCC1 | 17.9 | 33.3 | 22 | 22 | 29.2 | 7.21 | 13.6 | > 54.2 | 7.89 | 35.5 | 28.9 | 26.8 | 26.8 |  |
| O=S1(=O)c2ccccc2-c2nccc3ccnc1c23 | > 100 | > 100 | > 100 | > 100 | > 100 | 65.8 | > 100 |  | 29.9 | > 100 | 95.7 | 83.7 | 35.4 |  |
| CC(CC(C)[C@H]1CCC2[C@H]3C(CC(=O)[C@@]21C)[C@@]1(C)CCC(O)C[C@H]1C[C@@H]3O)C(=O)O (some centres not stated) | > 100 | > 100 | > 100 | > 100 | > 100 | > 100 | > 100 | > 100 | > 100 | > 100 | > 100 | > 100 | > 100 |  |
| COCCNC1CCC(=O)c2[nH]c3ccccc3c21 (configuration not stated) | > 100 | > 100 | > 100 | > 100 | > 100 | > 100 | > 100 | > 100 | > 100 | > 100 | > 100 | > 100 | > 100 |  |
| O=c1cc(-c2ccc3ccccc3c2)[nH]c2ncccc12 | > 100 | > 100 | > 100 | > 100 | > 100 | > 100 | > 100 | > 100 | 46 | > 100 | > 100 | 62.6 | > 100 | 10.4 |
| CN(C)CCN=C1Nc2ccccc2C(=O)N2CSCC12 (configuration not stated) | > 100 | > 100 | > 100 | > 100 | > 100 | > 100 | > 100 | > 100 | > 100 | > 100 | > 100 | > 100 | > 100 |  |
| COc1ccc2c(c1)C1c3ccccc3CCN1CCC2 (configuration not stated) | > 100 | > 100 | 70.8 | > 100 | > 100 | > 100 | > 100 | > 100 | 98.1 | > 100 | 84.7 | 64.2 | 68.2 |  |
| CC(C)(C)OC(=O)NCC(=O)N(CCc1ccc(Cl)c(Cl)c1)CCN1CCCC1 | 30.3 | 27.7 | 31.3 | 31.5 | 48.1 | 30 | 31.8 | 37.7 | 29.4 | 31.6 | 26.6 | 37.2 | 42.1 |  |
